Reference: article PMC9609428, “Rational Design and Synthesis of New Selective COX-2 Inhibitors with In Vivo PGE2-Lowering Activity by Tethering Benzenesulfonamide and 1,2,3-Triazole Pharmacophores to Some NSAIDs” (Pharmaceuticals, 2022)
Several values for one entry are separate records, joined by “and”; a condition that tells them apart may be missing. Equal entries are not always repeated. Marks after values point to notes of the source that are not given here.

Columns and labels:
[1] = molecular target: T1, (Ovis aries, UniProt P05979); test: In vitro human COX-1 enzymatic inhibitory activity (Cayman COX inhibitor screening assay kit); type: biochemical; details: mean ± SEM of triplicate determinations
T1 construct: purchased Cayman Chemicals Inc., Ann Arbor, MI, USA 560131
T1 sequence (P05979 25-600): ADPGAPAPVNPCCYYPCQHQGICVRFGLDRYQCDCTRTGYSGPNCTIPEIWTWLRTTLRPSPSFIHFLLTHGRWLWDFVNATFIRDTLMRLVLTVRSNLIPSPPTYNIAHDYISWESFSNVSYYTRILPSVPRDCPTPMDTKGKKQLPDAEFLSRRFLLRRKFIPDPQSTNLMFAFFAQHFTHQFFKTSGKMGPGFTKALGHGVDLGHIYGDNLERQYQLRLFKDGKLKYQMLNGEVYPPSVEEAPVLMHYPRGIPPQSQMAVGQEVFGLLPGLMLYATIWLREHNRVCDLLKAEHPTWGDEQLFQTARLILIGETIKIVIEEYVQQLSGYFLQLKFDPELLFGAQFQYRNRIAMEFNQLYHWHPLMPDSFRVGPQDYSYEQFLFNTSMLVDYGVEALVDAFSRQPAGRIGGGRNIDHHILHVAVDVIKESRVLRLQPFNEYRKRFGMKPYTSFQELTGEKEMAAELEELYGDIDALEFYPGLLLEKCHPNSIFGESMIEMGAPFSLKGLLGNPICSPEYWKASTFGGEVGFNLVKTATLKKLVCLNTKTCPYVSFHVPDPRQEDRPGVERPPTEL
Method: (§1) Inhibitory activities were defined as a test compound concentration achieving 50% human COX-1 or human COX-2 inhibition. The selectivity of compounds was referred to as a compound’s selectivity index values calculated as IC50 (COX-1)/IC50 (COX-2).
(§2) In vitro human COX-1 and human COX-2 enzymatic inhibitory activity of the tested compounds as well as the reference drugs was carried out according to the previously mentioned procedures; for details, see Page S15, Supplementary File.
(§3) 4.2. Biological screening
(§4) 4.2.1. In vitro human COX-1 and human COX-2 enzymatic inhibitory activities In vitro human COX-1 and human COX-2 enzymatic inhibitory activity of the tested compounds as well as the reference drugs was carried out according to the previously mentioned procedures [1][2]depending on Cayman colorimetric COX (ovine) inhibitor screening assay kit (Catalog No.
(§5) All reagents, test solutions and experimental procedures were performed in correspondence to both the manufacturer’s instructions and previously reported methods. Briefly, […] of different concentrations of tested compound solutions were added to a series of supplied reaction buffer solutions (960 µL, 0.1 M Tris-HCl, pH 8.0 containing 5 mM EDTA and 2 mM phenol) with either COX-1 or COX-2 (10 µL) enzyme in the presence of heme (10 µL). 10 µL of Arachidonic Acid (100 µM) solution were added to the mixtures of the enzyme and tested compounds, After incubating for 5 min at 25 °C followed by stopping COX reaction by adding of 50 µL of 1 M HCl. Moreover, after adding 100 µL of saturated stannous chloride solution, the absorbance was measured spectrophotometrically using plate reader. measuring the […]
(§6) percentage of human COX-1 or human COX-2 enzymatic inhibition of five different concentrations of each compound and then concentration-inhibition response curve were plotted to obtain IC50 values(three determinations). […]

human COX-2 = molecular target: T2, human COX-2 (Homo sapiens, UniProt P35354); test: In vitro human COX-2 enzymatic inhibitory activity (Cayman COX inhibitor screening assay kit); type: biochemical; details: for SI COX-1/COX-2: COX-2 selectivity index: COX-1 IC50/COX-2 IC50; for IC50: mean ± SEM of triplicate determinations
T2 construct: purchased Cayman Chemicals Inc., Ann Arbor, MI, USA 560131
T2 sequence (P35354 18-604): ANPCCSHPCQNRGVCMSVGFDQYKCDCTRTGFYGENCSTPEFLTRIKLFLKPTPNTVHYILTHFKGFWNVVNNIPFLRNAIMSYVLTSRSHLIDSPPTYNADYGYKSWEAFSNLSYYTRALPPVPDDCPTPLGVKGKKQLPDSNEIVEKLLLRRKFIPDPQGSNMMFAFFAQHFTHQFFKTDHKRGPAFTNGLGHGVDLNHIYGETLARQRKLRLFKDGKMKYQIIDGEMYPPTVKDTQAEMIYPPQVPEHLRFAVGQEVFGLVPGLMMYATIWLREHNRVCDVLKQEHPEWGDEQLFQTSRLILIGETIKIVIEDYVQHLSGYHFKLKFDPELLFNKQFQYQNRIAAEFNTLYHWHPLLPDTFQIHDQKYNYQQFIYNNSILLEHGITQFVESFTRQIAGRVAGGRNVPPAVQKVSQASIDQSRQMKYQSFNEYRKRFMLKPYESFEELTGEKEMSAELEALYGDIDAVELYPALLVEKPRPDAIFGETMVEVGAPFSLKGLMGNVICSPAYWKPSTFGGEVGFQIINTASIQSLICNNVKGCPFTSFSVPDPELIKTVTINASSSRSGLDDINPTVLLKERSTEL
Method: as §1, §2, §3, §4, §5, §6

[2] = test system: carrageenan-induced paw edema; test: In vivo carrageenan-induced paw edema in mice; details: for Thickness of Edema, 0 h / percentage anti-inflammatory activity (AI%), 2 h / Thickness of Edema, 2 h / percentage anti-inflammatory activity (AI%), 4 h / Thickness of Edema, 4 h / percentage anti-inflammatory activity (AI%), 6 h / Thickness of Edema, 6 h / percentage anti-inflammatory activity (AI%), 8 h / Thickness of Edema, 8 h: 10 µmol/kg b.wt po; for Thickness of Edema, 0 h / Thickness of Edema, 2 h / Thickness of Edema, 4 h / Thickness of Edema, 6 h / Thickness of Edema, 8 h: mean ± SEM, n = 5; for percentage anti-inflammatory activity (AI%), 2 h / Thickness of Edema, 2 h: 2 h after carrageenan; for percentage anti-inflammatory activity (AI%), 4 h / Thickness of Edema, 4 h: 4 h after carrageenan; for percentage anti-inflammatory activity (AI%), 6 h / Thickness of Edema, 6 h: 6 h after carrageenan; for percentage anti-inflammatory activity (AI%), 8 h / Thickness of Edema, 8 h: 8 h after carrageenan; for ED50: Mus musculus, paw edema inhibition 8 h after carrageenan, doses 5, 10, 20, 30 and 40 µmol/kg, read-out: ED50 (95% Confidence Level)
prostaglandin E2 (PGE2) = test: In vivo estimation of rat serum prostaglandin E2 (PGE2); details: carrageenan-injected rats, 10 µmol/kg b.wt po, after 8 h; for PGE2 Serum Conc.: mean ± SEM, n = 5
Method: Measuring plasma levels of prostaglandin E2 is one of the substantial parameters in confirming the in vivo COX-2 inhibition.
(approved by HU-IACUC). For more details, see Page S16, Supplementary File. […]
4.2.4. Estimation of rat serum prostaglandin E2 (PGE2) […]
procedure using EIA PGE2 kit (Aldrich, Steinheim, Germany). The kits as well as blood samples were […]
to a monoclonal antibody to PGE2 in kit. Excess reagents were removed followed by adding the substrate was added and incubated for short time. When a yellow color generate the optical density […]

SMILES	IC50 [1]	SI COX-1/COX-2 (human COX-2)	IC50 (human COX-2)	Thickness of Edema, 0 h [2]	percentage anti-inflammatory activity (AI%), 2 h [2]	Thickness of Edema, 2 h [2]	percentage anti-inflammatory activity (AI%), 4 h [2]	Thickness of Edema, 4 h [2]	percentage anti-inflammatory activity (AI%), 6 h [2]	Thickness of Edema, 6 h [2]	percentage anti-inflammatory activity (AI%), 8 h [2]	Thickness of Edema, 8 h [2]	ED50 [2]	% Inhibition of PGE2 production (prostaglandin E2 (PGE2))	PGE2 Serum Conc. (prostaglandin E2 (PGE2))	% Inhibition of PGE2 production (prostaglandin E2 (PGE2); listed as celecoxib)
CC(=NNC(=O)C(C)c1ccc(CC(C)C)cc1)c1nnn(-c2ccc(S(=O)(=O)Nc3nccs3)cc2)c1C (stereo not shown) [Compound 6b, 4-(4-(1-(2-(2-(4-Isobutylphenyl)propanoyl)hydrazineylidene)ethyl)-5-methyl-1H-1,2,3-triazol-1-yl)-N-(thiazol-2-yl)benzenesulfonamide]	13170 ± 120 nM	329 and 329.25	40 ± 0.7 nM	2.14 ± 0.006 mm	86.75%	2.34 ± 0.009 mm	94.51%	2.23 ± 0.009 mm	97.69%	2.18 ± 0.009 mm	99.45%	2.15 ± 0.007 mm	11.7 µmol/kg	90.70%	68.388 ± 7.13 ^c,d pg/mL	–
CC(=NNC(=O)Cc1ccccc1Nc1c(Cl)cccc1Cl)c1nnn(-c2ccc(S(=O)(=O)Nc3nccs3)cc2)c1C [Compound 6e, 4-(4-(1-(2-(2-(2-((2,6-Dichlorophenyl)amino)phenyl)acetyl)hydrazineylidene)ethyl)-5-methyl-1H-1,2,3-triazol-1-yl)-N-(thiazol-2-yl)benzenesulfonamide]	10230 ± 33.3 nM	204 and 204.6	50 ± 0.6 nM	2.12 ± 0.007 mm	58.28%	2.75 ± 0.008 mm	68.90%	2.63 ± 0.010 mm	75.72%	2.54 ± 0.009 mm	78.02%	2.52 ± 0.006 mm	18.2 µmol/kg	74.80%	185.329 ± 6.79 ^c,d pg/mL	–
Cc1ccnc(NS(=O)(=O)c2ccc(N=[N+]=[N-])cc2)n1 [Compound 1d, 4-Azido-N-(4-methylpyrimidin-2-yl)benzenesulfonamide]	4600 ± 115 nM	46	100 ± 3.3 nM	–	–	–	–	–	–	–	–	–	–	–	–	–
O=C(O)Cc1ccccc1Nc1c(Cl)cccc1Cl [Diclofenac, diclofenac, reference compound]	–	–	–	2.08 ± 0.006 mm	41.72%	2.96 ± 0.009 mm	55.49%	2.81 ± 0.009 mm	67.63%	2.64 ± 0.01 mm	72.53%	2.58 ± 0.01 mm	18.4 µmol/kg	72.27%	203.973 ± 6.35 ^c,d pg/mL	–
Cc1ccc(-c2cc(C(F)(F)F)nn2-c2ccc(S(N)(=O)=O)cc2)cc1 [Celecoxib, celecoxib, reference compound]	–	–	–	2.10 ± 0.005 mm	70.86%	2.54 ± 0.007 mm	79.27%	2.44 ± 0.011 mm	87.28%	2.32 ± 0.010 mm	89.01%	2.30 ± 0.009 mm	16.2 µmol/kg	78.62%	157.245 ± 7.33 ^c,d pg/mL	78.62%
[N-]=[N+]=Nc1ccc(S(=O)(=O)Nc2ncccn2)cc1 [Compound 1c, 4-Azido-N-(pyrimidin-2-yl)benzenesulfonamide]	5930 ± 88.2 nM	65.89	90 ± 0.6 nM	–	–	–	–	–	–	–	–	–	–	–	–	–
CC(=NNC(=O)c1ccccc1O)c1nnn(-c2ccc(S(=O)(=O)Nc3nccc(C)n3)cc2)c1C [Compound 6j, 4-(4-(1-(2-(2-Hydroxybenzoyl)hydrazineylidene)ethyl)-5-methyl-1H-1,2,3-triazol-1-yl)-N-(4-methylpyrimidin-2-yl)benzenesulfonamide]	12500 ± 57.7 nM	312 and 312.5	40 ± 0.6 nM	2.08 ± 0.007 mm	73.51%	2.48 ± 0.005 mm	82.32%	2.37 ± 0.009 mm	88.44%	2.28 ± 0.011 mm	91.21%	2.24 ± 0.009 mm	13.4 µmol/kg	86.34%	100.435 ± 5.66 ^c,d pg/mL	–
